Measurements as given in patent publication EP1667954B1, “BIPOLAR TRANS CAROTENOID SALTS AND THEIR USES” (Diffusion Pharmaceuticals LLC, priority 2003, dated 2005).

Experiments:
[1] = Aqueous solubility and solution stability of TSC / BTCS
Text: (§1) A dilute, eg .00001-.001M, solution of sodium carbonate can be added, dropwise, to deionized water until the pH is 8.0 (the pH of deionized water is usually 5-6). This only takes a few drops of the very dilute sodium carbonate per, say, 50 mls of deionized water.

[2] = Diffusivity of oxygen through aqueous solutions
Text: TSC increases survival in mammals following hypoxia, increases oxygen consumption following hypoxia or physiological stress, increases blood pressure following hypoxia, decreases blood acidosis (i.e., decreases blood base deficit, increases blood pH, and decreases plasma lactate level) following hypoxia, decreases organ damage (e.g. liver, kidney) following hypoxia. Thus, the compounds of the disclosure are useful for treating mammal (including human) diseases/conditions which are characterized by low oxygen (hypoxia) such as respiratory diseases, hemorrhagic shock and cardiovascular diseases, multiple organ failure (due to, for example, ARDS sepsis or hemorrhagic shock), chronic renal failure, atherosclerosis, emphysema, asthma, hypertension, cerebral edema, papillomas, spinal cord injuries, stroke, among others. The compounds of the disclosure are also useful for treating mammals at risk for the above-noted diseases/conditions. Other bipolar trans carotenoid salts have similar properties.

[3] = TSC by inhalation: drug in the blood stream after nebulizing into the trachea; type: in vivo; settings: rats
Experimental: TSC has been given to rats via an inhalation route. Ten rats were given TSC directly into the lungs. This was done by inserting a tube into the trachea, and nebulizing 0.2 ml of TSC solution (TSC dissolved in dilute sodium carbonate solution) with about 3 to 6 mls of air. For all dosages studied (0.5-2 mg/kg), about 20% of the drug was present in the blood stream within one minute after it was given. For dosages of .8 -1.6 mg/kg the drug was present in the blood stream for a period of at least two hours.

[4] = Dissolution in normal saline and other salt solutions; type: physicochemical; settings: no matter how much TSC is added (up to several milligrams per ml)
Experimental: Large volumes (as much as 3 times the estimated blood loss) of isotonic saline (also called normal saline) are infused as a treatment for hemorrhagic shock. The isotonic saline contains 9 g NaCl per liter of water so as not to disturb the ionic strength of the plasma once it is infused into the body. […] About 50% of the TSC dissolves in normal saline no matter how much TSC is added (up to several milligrams per ml), which means that undissolved particles of TSC are still present. […] The actual composition of the stock solution can be verified using UV-visible spectroscopy. This stock solution can be added to normal saline and the TSC remains dissolved.
This method can be used to dissolve a BTCS in other types of sodium chloride solutions, as well as in solutions of other salts such as KCl, Na2SO4, lactate, etc. Several, eg 1-3 mg/ml, can be put into solution in this manner.

[5] = system: hemorrhaged rats (55% blood volume); settings: cited from earlier work
physchem = settings: water
Text: as §1

[6] = system: rat model of acute hypoxia; settings: hypoxia with 10% oxygen, treatment after 10 minutes; only 2 of 6 control animals survived; cited from earlier work
[7] = result in words; cited from earlier work

## CC(/C=C/C=C(\C)C(=O)O)=C\C=C\C=C(C)\C=C\C=C(/C)C(=O)O [TSC, Trans sodium crocetinate]
[1]; deionized water brought to pH 8.0 with dilute sodium carbonate
  amount completely dissolved in sodium carbonate-deionized water solution: around 10 mg/ml
[1]; tap, distilled, deionized water
  stability of solutions in water: only stable if the pH is adjusted so as to make the solution basic
[2]
  increase of diffusivity of oxygen through aqueous solutions: about 30%
[3]; inhalation (intratracheal nebulizing), all dosages 0.5-2 mg/kg, within one minute
  drug present in the blood stream: about 20%
[3]; inhalation, dosages of .8 -1.6 mg/kg
  period the drug was present in the blood stream: at least two
[4]
  amount of TSC that dissolves in normal saline: About 50%
[5]; hemorrhaged rats (55% blood volume), bolus after hemorrhage, saline after another 30 minutes, all controls died
  survival: All of the TSC-treated animals lived
[5]; hemorrhaged rats, after about 15 minutes
  Whole-body oxygen consumption: 75 % of normal resting value
physchem
  solubility: ~10000 µg/mL
physchem; pH 8
  solubility: > 10000 µg/mL
[6]
  survival and hemodynamic stability: all survived with good hemodynamic stability for over two hours

## CC(/C=C/C=C(\C)C(=O)O)=C\C=C\C=C(C)\C=C\C=C(/C)C(=O)O [crocetin]
[7]
  solubility in water: only sparingly soluble

## CC(/C=C/C=C(\C)C(=O)O[C@@H]1O[C@H](CO[C@@H]2O[C@H](CO)[C@@H](O)[C@H](O)[C@H]2O)[C@@H](O)[C@H](O)[C@H]1O)=C\C=C\C=C(C)\C=C\C=C(/C)C(=O)O[C@@H]1O[C@H](CO[C@@H]2O[C@H](CO)[C@@H](O)[C@H](O)[C@H]2O)[C@@H](O)[C@H](O)[C@H]1O [crocin]
[7]
  solubility in water: significant solubility
